Measurements from patent US20040186082A1, “Enhanced phototherapy for the treatment of cancer and autoimmune disease” (priority 2003, published 2004).

System: psoriatic lesion on the leg
Assay: Treatment of a psoriatic lesion with topical ointment and UVB irradiation (single patient)
Format: in vivo
Details: VES 20 mg/gram ointment applied 1 day after provitamin D + UVB (3 MED); within 12 hours
Description: Treatment of psoriasis with UVB irradiation. A patient with a ½ inch round psoriatic lesion on the leg was treated with provitamin D (35 mg/gram ointment) and irradiated with UVB (3 MED). […] The formally lesional tissue looked like normal healthy tissue.

## Cc1c(C)c2c(c(C)c1OC(=O)CCC(=O)O)CC[C@@](C)(CCC[C@H](C)CCC[C@H](C)CCCC(C)C)O2 [Vitamin E succinate]
  appearance of the treated tissue (induration, redness): the tissue was not indurated and the redness disappeared
